Results taken from patent publication US11617773B2, “Elimination of colonic bacterial driving lethal inflammatory cardiomyopathy” (Eligo Bioscience, priority 2020, dated 2023).
No end group written: not given here.

Key:
[1] = test system: CD4^+ T cells from TCRM mice; assay: Ex vivo proliferation assay (CFSE dilution) after peptide re-stimulation; type: cell-based, mouse; conditions: 3 days
Protocol: Spleen cells were labelled with 10 μl of 5 mM carboxyfluorescein succinimidyl ester (CSFE, dissolved in DMSO) (Molecular Probes) in 10 ml of PBS for 10 min at 37° C. The staining reaction was stopped with 1 mL FCS (Lonza), followed by washing with PBS. A total of 2×10^5 splenocytes/well were seeded in 96-well round-bottom plate and MYH6614-629 (RSLKLMATLFSTYASADR, SEQ ID NO: 10) or Bacteroides β-galactosidase11-25 (TFLILMAALTATFASAQK, SEQ ID NO: 11), Enterobacter cysteine hydrolase10-27 (LLIGMMSTFSTYASAQET, SEQ ID NO: 12) or OVA323-339 (ISQAVHAAHAEINEAGR, SEQ ID NO: 13) peptide was added at the indicated concentrations. CSFE dilution was assessed by flow cytometry after 3 days of incubation at 37° C. All peptides were synthetized by Genscript with >80% of purity.

TCRM T cells = assay: Proliferation of transferred TCRM CD4^+ T cells after injection of peptide loaded dendritic cells; type: in vivo, mouse; conditions: TCRM CD4^+ T cells transferred into BALB/c mice
From the text: FIGS. 7A-I. Specificity and immune interaction of Bacteroides mimic peptide-specific CD4^+ T cells. (FIG. 7A) In vitro proliferation of CD4^+ T cells from TCRM mice or DO11.10 mice measured by CFSE dilution after re-stimulation with MYH6 or Bacteroides β-galactosidase peptide or ovalbumin peptide at indicated concentration (representative histograms from 1 out of 2 experiments) (FIG. 7B) Dendritic cells loaded with MYH6 or β-gal peptide from Bacteroides at the indicated concentration were co-cultured in vitro with CD4^+ T cells from TCRM mice. Maximum proliferation of CD4^+ T cells was analyzed by flow cytometry and effective concentration 50 (EC50) for each peptide was determined. (FIG. 7C) CD4^+ T cells from TCRM mice were adoptively transferred into BALB/c mice. Proliferation of CD4^+ T cells from TCRM mice was determined ex vivo by CFSE dilution after injection of peptide loaded dendritic cells (n=3). (FIG. 7D-FIG. 7E) Colonization of GF TCRM mice with SPF microbiota or B. thetaiotaomicron or E. coli. […] Fold increase values were calculated using the cytokine production in GF mice as baseline (mean±SEM). […] (FIG. 7H) experimental dosing, (FIG. 7I) representative dot plots left and quantification right of IgA bound bacteria; background was set using samples from Rag^−/− mice (mean±SEM). […]

[2] = test system: CD4^+ T cells from heart and colon of TCRM mice; assay: Ex vivo restimulation and cytokine production of murine T cells; type: cell-based, mouse
Protocol: For assessment of ex vivo production of IFN-γ and IL-17, 10^6 lymphocytes were incubated for 3.5 h at 37° C. in 96-well round-bottom plates in 200 μL of RPMI per 5% FCS supplemented with 10 μg/mL brefeldin A (Sigma). Cells were stimulated with 0.25 μg of the different peptides (see below), or phorbol myristate acetate (50 ng/ml; Sigma)/ionomycin (500 ng/ml; Sigma) (PMA/l) as positive control, or were left untreated. After surface molecule labelling, cells were stained with the fixable viability dye Zombie Aqua (Biolegend). Cells were fixed with cytofix-cytoperm (BD Biosciences) for 20 min. Fixed cells were incubated at 4° C. for 40 min with permeabilization buffer (2% FCS, 0.5% saponin in PBS) containing antibodies to CD3, CD4, IFN-γ and IL-17A. Samples were measured using a BD LSR Fortessa (BD Biosciences). Data were analyzed using FlowJo software (Tree Star, Inc.).

[3] = test system: peripheral blood mononuclear cells; assay: IFN-γ ELISPOT, human T cell stimulation; type: cell-based; conditions: Micro-DCM patients compared to healthy controls
Protocol: IFN-γ ELISPOT was performed as described by Lv et. al. with minor modifications (7), Briefly, PBMCs from patients and healthy volunteers were isolated on density gradients. PBMCs were adjusted to 2×10^6 cells/ml in 0.5 ml of complete IVS medium supplemented with 8% of human serum. Cells were stimulated for 48 h with 0.25 μg/ml of the indicated peptide or left untreated as medium control. After incubation, cells were washed and re-suspended in 0.3 ml of RPMI/10% FOS and approximately 5×10^5 cells/0.1 ml were dispensed in duplicates into previously coated and blocked ELISPOT plates (IFN-γ base kit, MABTECH). After 24 h of incubation at 37° C. the ELISPOT plates were washed and developed as indicated by the manufacturer. Plates were counted using an ELISPOT reader and analyzed with the software ELISPOT 3.1SR (AID). Number of specific IFN-γ positive cells was calculated as the mean of the duplicates minus the mean of the medium control.

Rag1^−/− mice = assay: Adoptive transfer myocarditis model with antibiotics treatment; type: in vivo, mouse; conditions: for accumulation of TCR-transgenic CD4^+ T cells in hearts / cardiac inflammation by flow cytometry (heart-infiltrating CD45^+ cells): day 28
Protocol: For the generation of single-cell suspensions, spleens and lymph nodes were collected in BSS and were mechanically disrupted on a metallic grid. To confirm the presence of heart-infiltrating cells, mice received 2 μg of anti-CD45.2 BV510 or anti-Thy 1.1 PE i.v. 5 min before being euthanized in the indicated experiments. Euthanized animals were perfused with 20 ml PBS and small heart tissue pieces were placed into a 6-well dish filled with RPMI 1640 medium containing 2% FCS, 20 mM HEPES (Lonza), 1 mg/ml collagenase 0 (Sigma) and 25 μg/ml DNasel (Applichem) and incubated at 37° C. under continuous stirring. The remaining tissue pieces were mechanically disrupted and mononuclear cells were purified by centrifugation (25 min at 800×g, 4° C.) on a 30-70% Percoll gradient (GE Healthcare). For isolation of colonic lamina propria cells, colons were flushed and tissue was harvested and incubated three times for 15 min at room temperature under constant agitation with BSS containing 5% FCS (Lonza), 5 mM EDTA (Sigma), 10 mM HEPES (Sigma) and 1 mM OTT in order to dissociate the epithelial layer. The tissue was subsequently washed with SS containing 10 mM HEPES and digested three times for 20 min at 37° C. with 120 μg/ml collagenase P (Roche), 25 μg/ml DNAse I (Applichem) and 5 μg/ml Dispase I (Roche) in RPMI-1640; after obtaining a single cell suspension, cells were purified by a 30-70% Percoll gradient. Single-cell suspensions were first stained with the fixable viability dye Zombie Aqua (Biolegend) and incubated for 30 min on ice; after washing, cells were incubated for 20 min at 4° C. in PBS containing 2% FCS and 10 mM EDTA with fluorochrome-labeled antibodies (Table 5). Cells were acquired with a BD LSRFortessa (BD Biosciences) and analyzed using FlowJo software (Treestar Inc) following stablished guidelines (32). […] Cells were stimulated with 0.25 μg of the different peptides (see below), or phorbol myristate acetate (50 ng/ml; Sigma)/ionomycin (500 ng/ml; Sigma) (PMA/l) as positive control, or were left untreated. After surface molecule labelling, cells were stained with the fixable viability dye Zombie Aqua (Biolegend). Cells were fixed with cytofix-cytoperm (BD Biosciences) for 20 min. […] Samples were measured using a BD LSR Fortessa (BD Biosciences). Data were analyzed using FlowJo software (Tree Star, Inc.). […] Red blood cells were lysed by osmotic shock and 10^6 splenocytes were injected intravenously in 4 wk mice in the lateral tail vein of Rag1^−/− mice. Seven days after adoptive transfer, mice were bled to confirm CD4^+ T cell expansion. Disease activity scores and analysis of T cell activation in the heart and colonic lamina propria were performed at day 28 post adoptive transfer.

B. thetaiotaomicron = assay: Quantitative B. thetaiotaomicron PCR in feces; type: in vivo, Bacteroides thetaiotaomicron; conditions: Rag1^−/− recipients, qPCR
Protocol: Bacterial genomic DNA was extracted using a commercial kit (QIAamp DNA Stool Mini Kit) with minor modifications. Glass beads (Sigma, G4649-10G) were used for an optimal disruption of fecal content and an additional extraction step was introduced after incubation of bacteria with a lysis buffer (20 mg/ml lysozyme—Sigma 62970-5G-F, 2 mM EDTA, 1.2% Triton, 20 mM Tris-HCl). Extracted genomic DNA was used as a template for B. thetaiotaomicron PCR amplification and quantification using a real-time PCR machine (Quant Studio 5) and SYBR Green PCR technology (Applied Biosystems, Thermo Fisher Scientific). B. thetaiotaomicron was quantified using species specific primers that have been established and validated before (39) ([…] and […]) with a cycling protocol of denaturation at 95° C. (2 min), 40 cycles of 95° C. (20 sec), 58° C. (20 sec) and 72° C. (30 sec). Each 17 μl qPCR mixture consisted of 8.5 μl of 2×SYBR Green MasterMix (Applied Biosystems, Thermo Fisher Scientific), 1.7 μl of BSA (100 μg/ml), 0.6 μl of each primer (10 μM), 3.60 μl PCR-grade water and 2 μl of extracted genomic DNA. DNA extracted from B. theta ATCC29148 was used to construct a standard curve with 10-fold dilutions of DNA templates of known concentrations. Concentrations of DNA used in the standard curves ranged from 33.75 ng/μl equivalent to 10^7 bacteria to 0.035 pg/μl equivalent to 10^1 bacteria. […]

With “LLIGMMSTFSTYASAQET (Enterobacter cysteine hydrolase 10-27) [Enterobacter cloacae peptide, Enterobacter cysteine hydrolase10-27 peptide synthetized by Genscript]” the “in vitro proliferation of CD4^+ T cells from TCRM mice” value [1] was “not”.

“TFLILMAALTATFASAQK [B. theta β-gal peptide, TFLILMAALTATFASAQK]” was tested, and the “in vitro proliferation of CD4^+ T cells from TCRM mice” value [1] was “induced in vitro proliferation”, the “activation of TCRM T cells in vivo by peptide-pulsed dendritic cells” value (TCRM T cells) was “efficient activation of TCRM T cells in vivo” and the “ex vivo re-stimulation of transgenic CD4^+ T cells (cytokine production)” value ([2]; heart and colon of 12 week old TCRM mice) was “ex vivo re-stimulation of transgenic CD4^+ T cells from heart and colon”. The “IFN-γ reactivity of PBMC” value [3] was “significantly higher IFN-γ reactivity”.

With “SLKLMATLFSSYATAD (listed as Homo sapiens) [SEQ ID NO: 17, human myosin heavy chain 6 peptide]” the “IFN-γ reactivity of PBMC” value [3] was “significantly higher IFN-γ reactivity”.

“RSLKLMATLFSTYASADR (MYH6 614-629) [MYH6 peptide, MYH6614-629 peptide synthetized by Genscript]” was tested, and the “IFN-γ or IL-17 secretion upon ex-vivo re-stimulation” value ([2]; CD4^+ T cells from colonic lamina propria, TCRM vs DO11.10) was “only MYH6-specific CD4^+ T cells, but not ovalbumin-specific CD4^+ T cells from the colonic lamina propria were able to secrete IFN-γ or IL-17”.

With `CN[C@H](CC(C)C)C(=O)N[C@H]1C(=O)N[C@@H](CC(N)=O)C(=O)N[C@H]2C(=O)N[C@H]3C(=O)N[C@H](C(=O)N[C@H](C(=O)O)c4cc(O)cc(O)c4-c4cc3ccc4O)[C@H](O)c3ccc(c(Cl)c3)Oc3cc2cc(c3O[C@@H]2O[C@H](CO)[C@@H](O)[C@H](O)[C@H]2O[C@H]2C[C@](C)(N)[C@H](O)[C@H](C)O2)Oc2ccc(cc2Cl)[C@H]1O` [Vancomycin] the “activity of Th1 cells” value (Rag1^−/− mice; IFN-γ production) was “reduced to a lesser extent”, the “activation of heart-infiltrating and colonic Th17 cells” value (Rag1^−/− mice; IL-17 production) was “pronounced impact” and the “accumulation of TCR-transgenic CD4^+ T cells in hearts” value (Rag1^−/− mice) was “significantly reduced accumulation”. The “cardiac inflammation by flow cytometry (heart-infiltrating CD45^+ cells)” value (Rag1^−/− mice) was “profound reduction”, the “cardiac disease (histopathology)” value (Rag1^−/− mice; day 28 post adoptive transfer) was “significantly ameliorated” and the “B. theta levels in fecal samples” value (B. thetaiotaomicron) was “reduced”.

With `[H]/N=C(/N)N[C@H]1[C@H](O)[C@@H](O)[C@H](O[C@@H]2O[C@@H](C)[C@](O)(C=O)[C@H]2O[C@@H]2O[C@@H](CO)[C@H](O)[C@@H](O)[C@@H]2NC)[C@@H](N/C(N)=N\[H])[C@@H]1O` [Streptomycin] the “accumulation of TCR-transgenic CD4^+ T cells in hearts” value (Rag1^−/− mice) was “significantly reduced accumulation” and the “cardiac inflammation by flow cytometry (heart-infiltrating CD45^+ cells)” value (Rag1^−/− mice) was “profound reduction”.
